In US11168086B2, “Methods of synthesizing pyrazine compounds” (Hoffmann-La Roche Inc., priority 2015, dated 2021) one finds EC50 data, which are given here for 20 compounds.

Molecules are shown by their SMILES.

For this assay, the system named is HBV. In words: HBV inhibition assay: anti-HBV activity in vitro in HepG2.2.15 cells (extracellular HBV DNA by qPCR). Format: cell-based. Particulars: Hepatitis B virus, 120 h, five days after compound treatment, extracellular HBV DNA in culture supernatant by qPCR, concentration at which HBV replication is inhibited by 50%. The gist of the method: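 HepG2.2.15 cells (stably carrying HBV genome) treated with half-log serially diluted compounds at 0.5% DMSO final for five days. Extracellular HBV DNA in supernatant quantified by qPCR after Proteinase K digestion; EC50 is concentration giving 50% inhibition of replication.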
Background: Real-time PCR tracks product formation cycle by cycle.
The EC50 is the concentration that produces a half-maximal response. Read a low EC50 as an effect from little substance. `C[C@H]1Cn2ncc(N3CC(Cn4cccn4)CC3=O)c2CN1C(=O)Nc1cc(F)c(F)c(F)c1` (stereo partly drawn) [Example 268, (6S)-6-methyl-3-[2-oxo-4-(pyrazol-1-ylmethyl)pyrrolidin-1-yl]-N-(3,4,5-trifluorophenyl)-6,7-dihydro-4H-pyrazolo[1,5-a]pyrazine-5-carboxamide] yielded an EC50 of 96 nM.
As for `C[C@H]1Cn2ncc(N3CC(Nc4ncccn4)CC3=O)c2CN1C(=O)Nc1cc(F)c(F)c(F)c1` (stereo partly drawn) [Example 269, (6S)-6-methyl-3-[2-oxo-4-(pyrimidin-2-ylamino)pyrrolidin-1-yl]-N-(3,4,5-trifluorophenyl)-6,7-dihydro-4H-pyrazolo[1,5-a]pyrazine-5-carboxamide], the figure is 12 nM; as for `C[C@H]1Cn2ncc(N3CC(Nc4ncncc4F)CC3=O)c2CN1C(=O)Nc1cc(F)c(F)c(F)c1` (stereo partly drawn) [Example 270, (6S)-3-[4-[(5-fluoropyrimidin-4-yl)amino]-2-oxo-pyrrolidin-1-yl]-6-methyl-N-(3,4,5-trifluorophenyl)-6,7-dihydro-4H-pyrazolo[1,5-a]pyrazine-5-carboxamide], 17 nM.
The result for `C[C@H]1Cn2ncc(N3CCOCC3=O)c2CN1C(=O)Nc1cc(F)c(F)c(C(F)F)c1` [Example 271, (6S)—N-[3-(difluoromethyl)-4,5-difluoro-phenyl]-6-methyl-3-(3-oxomorpholin-4-yl)-6,7-dihydro-4H-pyrazolo[1,5-a]pyrazine-5-carboxamide] reads 38 nM; that for `C[C@H]1Cn2ncc(N3CC(C)(C)OC3=O)c2CN1C(=O)Nc1ccnc(C(F)F)c1` [Example 272, (6S)—N-[2-(difluoromethyl)-4-pyridyl]-3-(5,5-dimethyl-2-oxo-oxazolidin-3-yl)-6-methyl-6,7-dihydro-4H-pyrazolo[1,5-a]pyrazine-5-carboxamide], 104 nM; that for `C[C@H]1[C@H](C)n2ncc(N3CCNC3=O)c2CN1C(=O)Nc1cc(F)c(F)c(F)c1` [Example 273, (6S,7S)-6,7-dimethyl-3-(2-oxoimidazolidin-1-yl)-N-(3,4,5-trifluorophenyl)-6,7-dihydro-4H-pyrazolo[1,5-a]pyrazine-5-carboxamide], 39 nM.
The result for `C[C@H]1[C@H](C)n2ncc(N3CCOCC3=O)c2CN1C(=O)Nc1cc(F)c(F)c(F)c1` [Example 274, (6S,7S)-6,7-dimethyl-3-(3-oxomorpholin-4-yl)-N-(3,4,5-trifluorophenyl)-6,7-dihydro-4H-pyrazolo[1,5-a]pyrazine-5-carboxamide] reads 40 nM; that for `C[C@H]1Cn2ncc(N3CN(C(=O)c4ccccc4)CC3=O)c2CN1C(=O)Nc1cc(F)c(F)c(F)c1` [Example 275, (6S)-3-(3-benzoyl-5-oxo-imidazolidin-1-yl)-6-methyl-N-(3,4,5-trifluorophenyl)-6,7-dihydro-4H-pyrazolo[1,5-a]pyrazine-5-carboxamide], 64 nM; that for `C[C@H]1Cn2ncc(N3CC(C)(C)OC3=O)c2CN1C(=O)Nc1cc(F)c(F)c(C(F)F)c1` [Example 276, (6S)—N-[3-(difluoromethyl)-4,5-difluoro-phenyl]-3-(5,5-dimethyl-2-oxo-oxazolidin-3-yl)-6-methyl-6,7-dihydro-4H-pyrazolo[1,5-a]pyrazine-5-carboxamide], 6 nM.
Consider `CC1COC(=O)N(c2cnn3c2CN(C(=O)Nc2cc(F)c(F)c(F)c2)[C@@H](C)C3)C1` (stereo partly drawn) [Example 278, (6S)-6-methyl-3-(5-methyl-2-oxo-1,3-oxazinan-3-yl)-N-(3,4,5-trifluorophenyl)-6,7-dihydro-4H-pyrazolo[1,5-a]pyrazine-5-carboxamide], for which the response was half-maximal at 27 nM (EC50).
The result for `C[C@H]1Cn2ncc(N3CN(c4ncccn4)CC3=O)c2CN1C(=O)Nc1cc(F)c(F)c(F)c1` [Example 281, (6S)-6-methyl-3-(5-oxo-3-pyrimidin-2-yl-imidazolidin-1-yl)-N-(3,4,5-trifluorophenyl)-6,7-dihydro-4H-pyrazolo[1,5-a]pyrazine-5-carboxamide] reads 52 nM; that for `C[C@H]1Cn2ncc(N3CC(c4nnco4)CC3=O)c2CN1C(=O)Nc1cc(F)c(F)c(F)c1` (stereo partly drawn) [Example 282, (6S)-6-methyl-3-[4-(1,3,4-oxadiazol-2-yl)-2-oxo-pyrrolidin-1-yl]-N-(3,4,5-trifluorophenyl)-6,7-dihydro-4H-pyrazolo[1,5-a]pyrazine-5-carboxamide], 57 nM.
As for `Cc1nnc(C2CC(=O)N(c3cnn4c3CN(C(=O)Nc3cc(F)c(F)c(F)c3)[C@@H](C)C4)C2)o1` (stereo partly drawn) [Example 283, (6S)-6-methyl-3-[4-(5-methyl-1,3,4-oxadiazol-2-yl)-2-oxo-pyrrolidin-1-yl]-N-(3,4,5-trifluorophenyl)-6,7-dihydro-4H-pyrazolo[1,5-a]pyrazine-5-carboxamide], the figure is 47 nM; as for `Cc1noc(C2CC(=O)N(c3cnn4c3CN(C(=O)Nc3cc(F)c(F)c(F)c3)[C@@H](C)C4)C2)n1` (stereo partly drawn) [Example 284, (6S)-6-methyl-3-[4-(3-methyl-1,2,4-oxadiazol-5-yl)-2-oxo-pyrrolidin-1-yl]-N-(3,4,5-trifluorophenyl)-6,7-dihydro-4H-pyrazolo[1,5-a]pyrazine-5-carboxamide], 10 nM; as for `Cc1nc(C2CC(=O)N(c3cnn4c3CN(C(=O)Nc3cc(F)c(F)c(F)c3)[C@@H](C)C4)C2)no1` (stereo partly drawn) [Example 285, (6S)-6-methyl-3-[4-(5-methyl-1,2,4-oxadiazol-3-yl)-2-oxo-pyrrolidin-1-yl]-N-(3,4,5-trifluorophenyl)-6,7-dihydro-4H-pyrazolo[1,5-a]pyrazine-5-carboxamide], 7 nM.
As for `C[C@H]1Cn2ncc(N3CC(c4nnc(C(F)(F)F)o4)CC3=O)c2CN1C(=O)Nc1cc(F)c(F)c(F)c1` (stereo partly drawn) [Example 286, (6S)-6-methyl-3-[2-oxo-4-[5-(trifluoromethyl)-1,3,4-oxadiazol-2-yl]pyrrolidin-1-yl]-N-(3,4,5-trifluorophenyl)-6,7-dihydro-4H-pyrazolo[1,5-a]pyrazine-5-carboxamide], the figure is 26 nM; as for `C[C@H]1Cn2ncc(N3CC(c4cncs4)CC3=O)c2CN1C(=O)Nc1cc(F)c(F)c(F)c1` (stereo partly drawn) [Example 290, (6S)-6-methyl-3-(2-oxo-4-thiazol-5-yl-pyrrolidin-1-yl)-N-(3,4,5-trifluorophenyl)-6,7-dihydro-4H-pyrazolo[1,5-a]pyrazine-5-carboxamide], 11 nM; as for `C[C@H]1Cn2ncc(N3CC(c4nccs4)CC3=O)c2CN1C(=O)Nc1cc(F)c(F)c(F)c1` (stereo partly drawn) [Example 291, (6S)-6-methyl-3-(2-oxo-4-thiazol-2-yl-pyrrolidin-1-yl)-N-(3,4,5-trifluorophenyl)-6,7-dihydro-4H-pyrazolo[1,5-a]pyrazine-5-carboxamide], 7 nM.
In turn, `C[C@H]1Cn2ncc(N3CCCOC3=O)c2CN1C(=O)Nc1cc(F)c(F)c(F)c1` [Example 292, (6S)-6-methyl-3-(2-oxo-1,3-oxazinan-3-yl)-N-(3,4,5-trifluorophenyl)-6,7-dihydro-4H-pyrazolo[1,5-a]pyrazine-5-carboxamide] registered an EC50 of 48 nM.
As to `C[C@H]1Cn2ncc(N3CC(C)(C)COC3=O)c2CN1C(=O)Nc1cc(F)c(F)c(F)c1` [Example 294, (6S)-3-(5,5-dimethyl-2-oxo-1,3-oxazinan-3-yl)-6-methyl-N-(3,4,5-trifluorophenyl)-6,7-dihydro-4H-pyrazolo[1,5-a]pyrazine-5-carboxamide], the response was half-maximal at 13 nM (EC50).
